From patent US8013008B2, “Cyclic amine compound” (Takeda Pharmaceutical Company Limited, priority 2006, dated 2011) come the findings set out here.

Test [1] addresses T1, wild-type androgen receptor (AR) (Homo sapiens, UniProt P10275).
T1 sequence (P10275 1-920): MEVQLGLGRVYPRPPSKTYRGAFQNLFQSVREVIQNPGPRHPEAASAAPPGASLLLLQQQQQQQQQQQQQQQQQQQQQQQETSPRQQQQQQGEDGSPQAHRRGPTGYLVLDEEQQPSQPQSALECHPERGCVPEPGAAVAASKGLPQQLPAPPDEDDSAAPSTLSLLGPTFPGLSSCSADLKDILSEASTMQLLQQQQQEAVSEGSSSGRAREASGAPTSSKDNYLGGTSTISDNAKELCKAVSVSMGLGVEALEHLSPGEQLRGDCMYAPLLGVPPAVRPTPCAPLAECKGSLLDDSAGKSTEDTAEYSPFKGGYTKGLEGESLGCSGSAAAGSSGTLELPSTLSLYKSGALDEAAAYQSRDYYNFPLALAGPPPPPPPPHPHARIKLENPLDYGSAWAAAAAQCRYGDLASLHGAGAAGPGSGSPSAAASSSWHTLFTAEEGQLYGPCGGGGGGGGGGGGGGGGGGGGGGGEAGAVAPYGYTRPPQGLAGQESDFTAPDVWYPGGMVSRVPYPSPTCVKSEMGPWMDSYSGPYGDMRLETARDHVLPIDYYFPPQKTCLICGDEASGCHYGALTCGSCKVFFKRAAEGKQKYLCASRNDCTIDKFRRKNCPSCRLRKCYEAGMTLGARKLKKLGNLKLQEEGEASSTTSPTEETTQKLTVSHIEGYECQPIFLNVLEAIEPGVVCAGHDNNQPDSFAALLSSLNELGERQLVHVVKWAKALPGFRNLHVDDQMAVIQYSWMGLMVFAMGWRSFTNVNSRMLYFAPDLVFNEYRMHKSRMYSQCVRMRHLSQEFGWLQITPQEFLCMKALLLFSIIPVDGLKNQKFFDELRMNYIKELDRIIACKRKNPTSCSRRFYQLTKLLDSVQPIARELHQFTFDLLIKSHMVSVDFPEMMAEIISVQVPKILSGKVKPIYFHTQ
In words: AR binding inhibitory test (wild-type). The note with it: 100 nM compound; 3 nM radiolabeled mibolerone; 4° C., 3 hr; dextran/charcoal B/F separation; read-out: Inhibitory rate (%) at 100 nM. The method, then:
To a solution containing a wild-type androgen receptor (AR) was added 3 nM radiolabeled mibolerone and 100 nM compound. After the solution was incubated at 4° C. for 3 hr, B (Bound)/F (Free) separation was performed by the dextran/charcoal method. The label count of B was measured, and the inhibitory rate of the compound was calculated.

The target of a further test is T2, AR (Homo sapiens, UniProt P10275).
T2 construct: expressed in transfected cells; host or cells: Cos-7
T2 sequence (P10275 1-920): T1 sequence (P10275 1-920)
As to the kind of experiment: Reporter assay system using Cos7 cell (AR gene + MMTV androgen responsive promoter-luciferase). The settings on record: 100 nM compound, 24 hr; Cos-7 co-transfected with AR and MMTV-luciferase vectors; luciferase activity induced by 1 μM 5α-dihydrotestosterone taken as 100. It counts as cell-based. Here is the method:
Cos-7(5,000,000 cells) were sown in a flask (150 cm^2), and cultured in a culture medium (DMEM medium containing 10% Dextran Charcoal (DCC)-Fetal Bovine Serum (FBS) and 2 mM glutamine) for 24 hr. A vector DNA containing AR gene, and a vector DNA prepared by binging luciferase gene at the downstream of an androgen responsive promoter derived from MMTV (Mouse Mammary Tumor Virus) were co-transfected by the liposome method. After culture for 4 hr, the cells were harvested, 10,000 cells were plated on a 96 well plate and cultured for 2 hr, after which 1 μM of 5α-dihydrotestosterone or 100 nM of a compound was added thereto. After culture for 24 hr, luciferase activity was determined. The induction rate by the compound was determined with the luciferase activity induced by addition of 1 μM of 5α-dihydrotestosterone as 100.

Take `C[C@@H]1N(c2ccc(C#N)c(F)c2)CC[C@]1(C)O` [Example 1, 2-fluoro-4-[(2S,3S)-3-hydroxy-2,3-dimethylpyrrolidin-1-yl]benzonitrile]: in test [1], the inhibition at 0.1 µM was determined as 95%. Further, the “Induction rate (%) at 100 nM” value on AR worked out at 65%.
On the same counts, the results for `CC[C@]1(O)CCN(c2cc(F)c(C#N)c(F)c2)[C@H]1C` [Example 7, 4-[(2S,3S)-3-ethyl-3-hydroxy-2-methylpyrrolidin-1-yl]-2,6-difluorobenzonitrile] are 98% and 107%.
For the compound `C[C@@H]1N(c2ccc(C#N)c(Cl)c2)CC[C@@]1(O)C(F)(F)F` [Example 18, 2-chloro-4-[(2S,3S)-3-hydroxy-2-methyl-3-(trifluoromethyl)pyrrolidin-1-yl]benzonitrile], the inhibition at 0.1 µM in test [1] amounted to 100%. Further, the “Induction rate (%) at 100 nM” value at AR amounted to 89%.
On the same counts, the results for `CC(C)[C@@H]1N(c2cc(F)c(C#N)c(F)c2)CC[C@]1(C)O` [Example 20, 2,6-difluoro-4-[(2S,3S)-3-hydroxy-2-isopropyl-3-methylpyrrolidin-1-yl]benzonitrile] are 98% and 59%.
For the compound `C[C@@H]1N(c2ccc(C#N)c(F)c2)CC[C@@]1(O)C1CC1` [Example 32, 4-[(2S,3R)-3-cyclopropyl-3-hydroxy-2-methylpyrrolidin-1-yl]-2-fluorobenzonitrile], the inhibition at 0.1 µM in test [1] was determined as 98%. In addition, the “Induction rate (%) at 100 nM” value on AR stood at 77%.
On the same counts, the results for `C[C@@H]1C[C@](C)(O)[C@H](C)N1c1ccc(C#N)c(Cl)c1` [Example 60, 2-chloro-4-[(2S,3S,5R)-3-hydroxy-2,3,5-trimethylpyrrolidin-1-yl]benzonitrile] are 92% and 37%.
